The record followed here is patent US20070071782A1, “2-Cyanobenzenesulfonamides for combating animal pests” (priority 2003, published 2007).

Molecules are shown by their SMILES.

Common to all, as to assay type: in vivo
Data set [1] has as its system Argentine ants, Linepithema humile. Description: whole plant or invertebrate. Conditions: for mortality at 1 % strength: Linepithema humile, 144 h, read-out: Mean cumulative % mortality 6 days after treatment. Here is the method:
• a) The tests were conducted in petri dishes. Ants were given a water source and then were starved of a food source for 24 hours. Baits were prepared with 20% honey/water solution. A solution of the active ingredient in acetone was added to reach a concentration of the active ingredient of 1% by weight (w/w). 0.2 ml of the active ingredient containing honey/water solution, placed in a cap, was added to each dish. The dishes were covered and maintained at a water temperature of 22° C. […]
b) The tests were conducted as in example a). The following compounds I and II according to EP 33984 were used as comparative examples.

Data set [2] has as its system Green Peach Aphid (Myzus persicae). Description: Green Peach Aphid leaf-dip test on pepper plants. The settings on record: foliar, 120 h, after 5 days, read-out: mortality in comparison with untreated controls. The method, then:
(§1) The active compounds were formulated in 50:50 acetone:water and 100 ppm Kinetic® surfactant.
Pepper plants in the 2nd leaf-pair stage (variety ‘California Wonder’) were infested with approximately 40 laboratory-reared aphids by placing infested leaf sections on top of the test plants. The leaf sections were removed after 24 hr. The leaves of the intact plants were dipped into gradient solutions of the test compound and allowed to dry. Test plants were maintained under fluorescent light (24 hour photoperiod) at about 25° C. and 20-40% relative humidity. Aphid mortality on the treated plants, relative to mortality on check plants, was determined after 5 days.

Data set [3] has as its system Cotton Aphid (Aphis gossypii). Description: Cotton Aphid cotyledon-dip test on cotton plants. Conditions: 120 h, after 5 days, read-out: mortality in comparison with untreated controls.
Text: as §1
Cotton plants in the cotyledon stage (variety ‘Delta Pine’, one plant per pot) were infested by placing a heavily infested leaf from the main colony on top of each cotyledons. The aphids were allowed to transfer to the host plant overnight, and the leaf used to transfer the aphids were removed. The cotyledons were dipped in the test solution and allowed to dry. After 5 days, mortality counts were made.

A word on the mortality: it is the percentage killed. As to `CCN(CC)S(=O)(=O)c1cccc(Cl)c1C#N` [Comparative Example I, reference compound], in data set [1], the mortality at 1 % strength was 35.6%.

Take `CCNS(=O)(=O)c1cccc(Cl)c1C#N` [Comparative Example II, reference compound]: in data set [1], the mortality at 1 % strength was determined as 35.6%.

Regarding `CCCNS(=O)(=O)c1cccc(C)c1C#N` [Compound 1, n-Propyl-(2-cyano-3-methyl-phenyl)sulfonamide], in data set [2], the mortality at 300 ppm was more than 85%. For the molecule `CNS(=O)(=O)c1cccc(OC)c1C#N` [Compound 2, Methyl-(2-cyano-3-methoxy-phenyl)sulfonamide], the mortality at 300 ppm in data set [2] and in data set [3] was more than 85% in each case.

Consider `CCNS(=O)(=O)c1ccc(Cl)c(C)c1C#N` [Compound 3, Ethyl-(4-chloro-2-cyano-3-methyl-phenyl)sulfonamide], for which the mortality at 300 ppm in data set [2] and in data set [3] was more than 85% throughout. In the case of `CCNS(=O)(=O)c1cccc(OC(F)F)c1C#N` [Compound 66], in data set [1] (in vivo), the “Mean cumulative % mortality 6 days after treatment” value is reported as 100.0% and the “mortality compared to untreated controls” value was determined as 100%. With `N#Cc1c(OC(F)F)cccc1S(N)(=O)=O` [Compound 78], the “mortality compared to untreated controls” value in data set [1] (in vivo) stood at 100%. Still for that read-out and setting: to `C#CCNS(=O)(=O)c1cccc(OC(F)F)c1C#N` [Compound 79] belongs 100%.
